Laboratory results as given in ChEMBL document CHEMBL1201862, “PubChem BioAssay data set” (2004).
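Following 48 hours of exposure in 96-well plates, responses at five concentrations were used to interpolate endpoints linearly. Abbreviation: GI50, concentration required for 50% inhibition of growth.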 Activity calls are given as the source filed them. Cut-off read from the data, not from the text of the source: active = GI50 up to about 1.1 µM and inactive = higher.

Assays:
Assay in all cases: NCI anticancer screen, dose series, 48 h
[1] = system: HOP-18
[2] = system: RPMI-8226
[3] = system: SF-295
[4] = system: DMS-273
[5] = system: SK-MEL-28
[6] = system: M14
[7] = system: OVCAR-5
[8] = system: RXF 393
[9] = system: CAKI-1
[10] = system: DMS-114
[11] = system: HL-60
[12] = system: TK-10
[13] = system: SK-MEL-5
[14] = system: HT-29
[15] = system: Malme-3M
[16] = system: NCI-H226
[17] = system: SR
[18] = system: HCC 2998
[19] = system: SK-MEL-2
[20] = system: LOX IMVI
[21] = system: NCI-H460
[22] = system: A498
[23] = system: COLO 205
[24] = system: ACHN
[25] = system: UACC-257
[26] = system: KM12
[27] = system: NCI-H23
[28] = system: HOP-92
[29] = system: SF-268
[30] = system: SNB-75
[31] = system: OVCAR-4
[32] = system: NCI-H522
[33] = system: DLD-1
[34] = system: A549
[35] = system: KM-20L2
[36] = system: U-251
[37] = system: HOP-62
[38] = system: SW-620
[39] = system: SK-OV-3
[40] = system: HCT-15
[41] = system: SNB-78
[42] = system: SN12C
[43] = system: LXFL 529
[44] = system: SNB-19
[45] = system: HCT-116
[46] = system: XF498
[47] = system: 786-0
[48] = system: MOLT-4
[49] = system: OVCAR-8
[50] = system: CCRF-CEM
[51] = system: SF-539
[52] = system: UACC-62
[53] = system: UO-31
[54] = system: EKVX
[55] = system: IGROV-1
[56] = system: K562
[57] = system: M19-MEL
[58] = system: OVCAR-3
[59] = system: MCF7
[60] = system: NCI/ADR-RES

`COc1ccc(C2SCC(=O)N2NC(=O)c2ccncc2)cc1F` (stereo unspecified) was tested, and the GI50 [1] was 7.29 µM (inactive), the GI50 [2] was > 100 µM (inactive) and the GI50 [3] was > 100 µM (inactive). The GI50 [4] was > 100 µM (inactive), the GI50 [5] was > 100 µM (inactive) and the GI50 [6] was > 100 µM (inactive). The GI50 [7] was > 100 µM (inactive), the GI50 [8] was > 100 µM (inactive) and the GI50 [9] was > 100 µM (inactive). For the same molecule, the GI50 [10] was > 100 µM (inactive), the GI50 [11] was > 100 µM (inactive) and the GI50 [12] was > 100 µM (inactive). For the same molecule, the GI50 [13] was > 100 µM (inactive), the GI50 [14] was > 100 µM (inactive) and the GI50 [15] was > 100 µM (inactive). The GI50 [16] was > 100 µM (inactive), the GI50 [17] was > 100 µM (inactive) and the GI50 [18] was > 100 µM (inactive). The GI50 [19] was > 100 µM (inactive), the GI50 [20] was > 100 µM (inactive) and the GI50 [21] was > 100 µM (inactive). For the same molecule, the GI50 [22] was > 100 µM (inactive), the GI50 [23] was > 100 µM (inactive) and the GI50 [24] was > 100 µM (inactive). For the same molecule, the GI50 [25] was > 100 µM (inactive), the GI50 [26] was > 100 µM (inactive) and the GI50 [27] was > 100 µM (inactive). The GI50 [28] was > 100 µM (inactive), the GI50 [29] was > 100 µM (inactive) and the GI50 [30] was > 100 µM (inactive). The GI50 [31] was > 100 µM (inactive), the GI50 [32] was > 100 µM (inactive) and the GI50 [33] was > 100 µM (inactive). The GI50 [34] was > 100 µM (inactive), the GI50 [35] was > 100 µM (inactive) and the GI50 [36] was > 100 µM (inactive). The GI50 [37] was > 100 µM (inactive), the GI50 [38] was > 100 µM (inactive) and the GI50 [39] was > 100 µM (inactive). The GI50 [40] was greater than 100 µM, the GI50 [41] was > 100 µM (inactive) and the GI50 [42] was > 100 µM (inactive). The GI50 [43] was > 100 µM (inactive), the GI50 [44] was > 100 µM (inactive) and the GI50 [45] was > 100 µM (inactive). The GI50 [46] was > 100 µM (inactive).

`COc1cc(NS(=O)(=O)c2ccc(C)cc2)c2nccnc2c1` was tested, and the GI50 [1] was 93.5 µM (inactive), the GI50 [2] was 25.5 µM (inactive) and the GI50 [47] was 36.1 µM (inactive). For the same molecule, the GI50 [3] was 26.7 µM (inactive), the GI50 [4] was 23.6 µM (inactive) and the GI50 [48] was 12.4 µM (inactive). For the same molecule, the GI50 [5] was 30.7 µM (inactive), the GI50 [6] was 17 µM (inactive) and the GI50 [7] was 89.7 µM (inactive). For the same molecule, the GI50 [8] was 14.3 µM (inactive), the GI50 [9] was 37.6 µM (inactive) and the GI50 [10] was 14.6 µM (inactive). The GI50 [11] was 13 µM (inactive), the GI50 [49] was 26.7 µM (inactive) and the GI50 [50] was 10.3 µM (inactive). For the same molecule, the GI50 [12] was 47 µM (inactive), the GI50 [51] was 29.2 µM (inactive) and the GI50 [13] was 23.7 µM (inactive). For the same molecule, the GI50 [52] was 14.8 µM (inactive), the GI50 [14] was 36.8 µM (inactive) and the GI50 [15] was 37.2 µM (inactive). For the same molecule, the GI50 [16] was 36.9 µM (inactive), the GI50 [53] was 34.4 µM (inactive) and the GI50 [54] was 39.8 µM (inactive). For the same molecule, the GI50 [17] was 16.7 µM (inactive), the GI50 [18] was 47.6 µM (inactive) and the GI50 [19] was 16.6 µM (inactive). The GI50 [20] was 28 µM (inactive), the GI50 [21] was 13 µM (inactive) and the GI50 [22] was 56.2 µM (inactive). The GI50 [23] was 27 µM (inactive), the GI50 [24] was 23.1 µM (inactive) and the GI50 [25] was 29.8 µM (inactive). The GI50 [26] was 32.6 µM (inactive), the GI50 [27] was 34.4 µM (inactive) and the GI50 [28] was 35.2 µM (inactive). The GI50 [29] was 24.7 µM (inactive), the GI50 [30] was 24.3 µM (inactive) and the GI50 [31] was 39.6 µM (inactive). For the same molecule, the GI50 [32] was 20.7 µM (inactive), the GI50 [33] was 30.3 µM (inactive) and the GI50 [34] was 24 µM (inactive). The GI50 [35] was 32.1 µM (inactive), the GI50 [55] was 36.9 µM (inactive) and the GI50 [36] was 22.1 µM (inactive). For the same molecule, the GI50 [37] was 33.2 µM (inactive), the GI50 [56] was 20.4 µM (inactive) and the GI50 [38] was 37.8 µM (inactive). The GI50 [39] was 84.9 µM (inactive), the GI50 [40] was 17.7 µM and the GI50 [57] was 19.5 µM (inactive). The GI50 [42] was 39.3 µM (inactive), the GI50 [43] was 20.8 µM (inactive) and the GI50 [44] was 29.8 µM (inactive). The GI50 [58] was 32.4 µM (inactive) and the GI50 [46] was 29 µM (inactive).

For `CCOC(=O)/C(O)=C1\C(=O)N(C)C(=O)C1c1cccc(OC)c1` (stereo unspecified), the GI50 [1] was > 100 µM (inactive), the GI50 [2] was > 100 µM (inactive) and the GI50 [3] was > 100 µM (inactive). The GI50 [4] was > 100 µM (inactive), the GI50 [48] was > 100 µM (inactive) and the GI50 [5] was > 100 µM (inactive). The GI50 [7] was > 100 µM (inactive), the GI50 [8] was > 100 µM (inactive) and the GI50 [9] was > 100 µM (inactive). For the same molecule, the GI50 [10] was > 100 µM (inactive), the GI50 [11] was > 100 µM (inactive) and the GI50 [49] was > 100 µM (inactive). The GI50 [50] was > 100 µM (inactive), the GI50 [51] was > 100 µM (inactive) and the GI50 [13] was > 100 µM (inactive). For the same molecule, the GI50 [52] was > 100 µM (inactive), the GI50 [14] was > 100 µM (inactive) and the GI50 [15] was > 100 µM (inactive). The GI50 [16] was > 100 µM (inactive), the GI50 [53] was > 100 µM (inactive) and the GI50 [54] was > 100 µM (inactive). For the same molecule, the GI50 [18] was > 100 µM (inactive), the GI50 [19] was > 100 µM (inactive) and the GI50 [20] was > 100 µM (inactive). The GI50 [59] was > 100 µM (inactive), the GI50 [21] was > 100 µM (inactive) and the GI50 [22] was 95.3 µM (inactive). For the same molecule, the GI50 [23] was > 100 µM (inactive), the GI50 [25] was > 100 µM (inactive) and the GI50 [26] was > 100 µM (inactive). The GI50 [27] was > 100 µM (inactive), the GI50 [28] was > 100 µM (inactive) and the GI50 [29] was > 100 µM (inactive). The GI50 [30] was > 100 µM (inactive), the GI50 [31] was > 100 µM (inactive) and the GI50 [32] was > 100 µM (inactive). For the same molecule, the GI50 [33] was > 100 µM (inactive), the GI50 [60] was > 100 µM (inactive) and the GI50 [34] was > 100 µM (inactive). The GI50 [35] was > 100 µM (inactive), the GI50 [55] was > 100 µM (inactive) and the GI50 [36] was > 100 µM (inactive). For the same molecule, the GI50 [37] was > 100 µM (inactive), the GI50 [56] was > 100 µM (inactive) and the GI50 [38] was > 100 µM (inactive). The GI50 [39] was > 100 µM (inactive), the GI50 [40] was greater than 100 µM and the GI50 [57] was > 100 µM (inactive). For the same molecule, the GI50 [41] was > 100 µM (inactive), the GI50 [42] was > 100 µM (inactive) and the GI50 [44] was > 100 µM (inactive). The GI50 [45] was > 100 µM (inactive), the GI50 [58] was > 53.3 µM (inactive) and the GI50 [46] was > 100 µM (inactive).
